In patent US5091524A, “Glycosidase inhibitor salbostatin, process for its preparation, and its use” (Hoechst Aktiengesellschaft, priority 1988, dated 1992):
pIC50, pKi: −log10 of the molar value.

Target: T1, trehalase (Sigma No. T 8778) (Sus scrofa, UniProt I3LIR5)
T1 construct: purchased Sigma T 8778
T1 sequence (I3LIR5 24-583): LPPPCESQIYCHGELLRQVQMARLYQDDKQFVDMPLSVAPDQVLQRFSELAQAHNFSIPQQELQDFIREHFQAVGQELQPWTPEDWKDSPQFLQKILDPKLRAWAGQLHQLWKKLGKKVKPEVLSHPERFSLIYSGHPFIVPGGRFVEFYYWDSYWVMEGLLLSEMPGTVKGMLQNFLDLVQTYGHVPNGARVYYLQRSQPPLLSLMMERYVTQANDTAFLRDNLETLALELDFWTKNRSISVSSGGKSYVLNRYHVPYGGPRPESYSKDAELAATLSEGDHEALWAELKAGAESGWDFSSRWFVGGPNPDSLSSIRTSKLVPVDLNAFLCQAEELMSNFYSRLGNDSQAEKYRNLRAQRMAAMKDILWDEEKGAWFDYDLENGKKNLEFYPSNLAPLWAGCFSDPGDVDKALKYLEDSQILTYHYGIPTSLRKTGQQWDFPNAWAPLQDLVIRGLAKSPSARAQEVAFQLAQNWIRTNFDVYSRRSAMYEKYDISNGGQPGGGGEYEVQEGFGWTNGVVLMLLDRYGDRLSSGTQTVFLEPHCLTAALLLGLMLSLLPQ
Test: Trehalase assay (colorimetric determination of D-glucose liberated from trehalose)
Assay type: biochemical
Description: The trehalase assay is based on the colorimetric determination of D-glucose, which is liberated from trehalose by the action of trehalase.
Before the assay was started, trehalase (Sigma No. T 8778) was diluted with 20 mM phosphate buffer pH 6.5 in a ratio of 1 1000. Trehalose was dissolved in a concentration of 0.lM in 0.lM 2-(n-morpholino)ethanesulfonic acid.
At the beginning of the assay, 100 μl each of H2 O, trehalose and trehalase were combined and the mixture was incubated at 37° C. for 30 minutes. The reaction was stopped by heating the batch to 100° C. The control batch was stopped immediately (0 minutes) by boiling. Where appropriate, salbostatin was added to the reaction batches in various concentrations in place of water.
The glucose which was liberated from the trehalose was determined colorimetrically. To this end, the glucose was reacted by glucose oxidase and the H2 O2 which formed was used for oxidizing o-dianisidine.The oxidized odianisidine was determined using a photometer. All the abovementioned reagents for glucose determination came from the glucose kit manufactured by Sigma (Sigma Chemie GmbH, Deisenhofen, Germany; No. 510-DA), and the assay was carried out in accordance with the enclosed protocol.

pKi (competitive with regard to trehalose, read-out: inhibitor constant Ki): 6.74
pIC50 (substrate trehalose, 37° C., 30 minutes, read-out: salbostatin concentration showing an enzyme inhibition of 50%): 7.00 to 8.00
type of inhibition (enzyme kinetics) (with regard to trehalose): competitive trehalase inhibitor
Structure (SMILES): OCC1=C[C@H](N[C@H]2CO[C@H](CO)[C@@H](O)[C@@H]2O)[C@H](O)[C@@H](O)[C@@H]1O [salbostatin]
